The source of these data is paper PMC11988454, “Discovery of synthetic small molecules targeting the central regulator of Salmonella pathogenicity” (Science Advances, 2025).

Data set [1] has as its system HeLa cells. In words: Cytotoxicity, CellTox Green Cytotoxicity Assay, HeLa. The data set is classed as cell-based. Particulars: exposure time 18 h. The procedure:
In vitro toxicity of compound C26 was assessed in HeLa cells (ATCC CCL-2) using the ApoTox-Glo Triplex Assay and in macrophages RAW 264.7-LgBiT using the CellTox Green Cytotoxicity Assay (Promega, USA) according to the manufacturer’s instructions. The screening of in vitro toxicity of the compound analogs was performed with the CellTox Green Cytotoxicity Assay (Promega, USA) according to the manufacturer’s instructions. Cells (10^4 cells per well) were seeded into a 96-well plate and incubated for 24 hours at 37°C, 5% (v/v) CO2. Cells were then treated with the compound at different concentrations or 1% (v/v) DMSO in Dulbecco’s modified Eagle’s medium (DMEM) without phenol red at the desired exposure time. Fluorescence intensity was measured with a TECAN Spark microplate reader. Cytotoxicity [relative fluorescence units (RFU)] and viability (RFU) values were plotted to calculate the TC50 using GraphPad Prism 10.1.1.
Compound concentration (µM) […]
in vitro cytotoxicity of C26 and analogs. Cytotoxicity assessed with CellTox™ Green Cytotoxicity Assay with an exposure time of 18 h. N = 3 biological replicates. Data were plotted and TC50 values were generated with GraphPad Prism 10.1.1.
(1 picture or pasted object on this page, not shown here)

Data set [2] has as its target T1, HilD (Salmonella typhimurium, UniProt P0CL08).
T1 construct: His6-SUMO (N, cleaved yes); made in house; host or cells: E. coli C41(DE3)
In words: nanoDSF thermal stability, HilD. The data set is classed as binding, S. Typhimurium. The procedure: Thermal stability of proteins was determined using nanoDSF, with runs performed on a Prometheus NT.48 (NanoTemper Technologies). A twofold serial dilution series of C26 was prepared in DMSO. C26 was added to HilD or HilC (5 μM) in SEC buffer, giving a final DMSO concentration of 1% (v/v). Samples were incubated for >20 min at r.t. and centrifuged for 2 min prior to loading of standard capillaries (no. PR-C002). Samples were heated from 20° to 80°C with a temperature gradient of 0.5°C min^−1. Melting temperatures were calculated from changes in the fluorescence ratio (350/330 nm), using PR.Stability Analysis v1.0.3 and a temperature range of 40° to 70°C for curve fitting. Data analysis was performed using Prism 8.4 (GraphPad). The change in HilD melting temperature, Tm, was fitted as a function of ligand concentration, using Eqs. 1 and 2 to yield apparent affinity (Kd,app) values Tm{[L]0}=Tm,lower+(Tm,upper−Tm,lower)*(1−α{[L]0}) (1) α{[L]0}=[P]t−Kd−[L]t+{[P]t+[L]t+Kd,app}^2−{4[P]t[L]t}/2[P]t (2) where [P]t and [L]t are the total protein and ligand concentrations, respectively.

For data set [3], the system named is S. Typhimurium invasion of HeLa cells. In words: Invasion assay into HeLa cells. The data set is classed as cell-based. Conditions: C26 100 μM, MOI 20. How it is done: In a white 24-well plate (NUNC), 10^5 HeLa cells were seeded in 350 μl of DMEM (Gibco), 24 hours before the infection. Bacteria were grown in LB supplemented with 0.3 M NaCl and either compound at different concentrations or 1% (v/v) DMSO, at 37°C with shaking at 180 rpm until an OD600 of 0.9 was reached. Bacteria were then pelleted and washed twice with HBSS. The bacterial suspension was diluted to obtain an MOI of 20 to infect HeLa cells. The plate was centrifuged for 5 min at 300g to synchronize the infection and then incubated for 25 min at 37°C and 5% (v/v) CO2 to allow Salmonella invasion into HeLa cells. To quantify the invasiveness, the cells were first washed three times with 500 μl of prewarmed PBS. The remaining extracellular bacteria were killed with 500 μl of DMEM supplemented with gentamicin (100 μg/ml). HeLa cells were incubated for 1 hour and then washed three times with prewarmed PBS and lysed with 500 μl of 0.5% (v/v) SDS in PBS for 5 min at 37°C on a shaking platform. The lysate was serial diluted in PBS-T [PBS with 0.05% (v/v) Tween 20] to determine the colony-forming units (CFUs) by plating on LB medium supplemented with streptomycin (50 μg/ml).

As a reminder, the Kd is the concentration at which binding is half-saturated. A high value points to weaker binding.

T1 sequence (P0CL08 whole entry): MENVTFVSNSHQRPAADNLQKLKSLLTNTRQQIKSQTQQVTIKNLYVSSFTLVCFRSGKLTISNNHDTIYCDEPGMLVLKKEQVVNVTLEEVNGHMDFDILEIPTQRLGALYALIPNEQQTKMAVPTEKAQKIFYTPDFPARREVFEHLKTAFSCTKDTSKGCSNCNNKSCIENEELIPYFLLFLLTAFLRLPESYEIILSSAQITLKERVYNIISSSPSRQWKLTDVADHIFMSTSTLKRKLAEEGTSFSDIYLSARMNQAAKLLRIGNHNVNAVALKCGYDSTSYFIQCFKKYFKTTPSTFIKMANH

Molecule `CN(CC(=O)NCc1ccc2c(c1)OCO2)Cc1ccc(Br)s1` [C26, N-(benzo[d][1,3]dioxol-5-ylmethyl)-2-{[(5-bromothiophen-2-yl)methyl](methyl)amino}acetamide] returned a TC50 cytotoxicity in data set [1] above 100 µM. Also, in data set [2], the Kd came out at 30.2 µM. Moreover, in data set [3], the “invasiveness of HilDY46A mutant into HeLa cells” value is “unaffected”. The “Invasion of HeLa cells (%), of the original inoculum” value in data set [3] (DMSO control 11.75) worked out at 3.5%.
